The values below come from patent US10774068B2, “Composition and methods for inhibiting mammalian sterile 20-like kinase 1” (The Scripps Research Institute, priority 2015, dated 2020).

For experiment [1], the target named is T1, MST1 (Homo sapiens (Human), UniProt Q13043). The experiment in a line: MST1 biochemical LanthaScreen Eu Kinase Binding Assay. Here is the method:
(§1) MST1 and MST2 biochemical LanthaScreen Eu Kinase Binding Assay was based on the binding and displacement of kinase tracer to the kinase of interest. Compounds in 1000×DMSO stock solution was dispensed using automated dispensing system (Labcyte) to 384 well Corning Microplate at 15 nL, 5 uL of Kinase buffer A was added to each well. Plates were shaken and incubated for 1 min to ensure well dissolution of compounds.
On the technique in general: Time-resolved FRET reads energy transfer from a long-lived donor to a nearby acceptor.

Experiment [2] has as its target MST2 (Homo sapiens (Human), UniProt Q13188). The experiment in a line: MST2 biochemical LanthaScreen Eu Kinase Binding Assay. As for the experimental part:
as §1

Experiment [3] relates to human islets. The experiment in a line: High glucose/palmitate induced apoptotic activity in human islets. More on the design: MST1 phosphorylation (pMST1): dose or concentration left out as unconfirmed. As to conditions: HG/Pal, FIG. 8.
From the text: Freshly isolated human islets from a single donor were exposed to high glucose and palmitate (HG/Pal) to induce apoptosis.
Experiment [4] concerns human islets. As to the kind of experiment: Cytokine (IL-1β and IFN-γ) induced apoptotic activity in human islets. The format is cell-based. As to conditions: FIG. 9.
Experiment [5] concerns Beta cell. The experiment in a line: Beta cell apoptosis with increasing concentrations of neratinib (FIG. 3). The format is cell-based.
The test system of experiment [6] is T1D model mice. As to the kind of experiment: T1D model mice treated with streptozotocin (STZ). The format is in vivo.
The target in experiment [7] is T1, MST1. The experiment in a line: MST1 kinase activity. The format is biochemical.
[8] abbreviates: read-out: Kinase Binding assay-MST1 IC50.
Setting [9] is: read-out: Kinase Binding assay-MST2 IC50.

Molecules are shown by their SMILES. pIC50: −log10 of the molar value. Read-outs that look alike come from different tables or passages of the source.

Chain of MST2 (Q13188 whole entry): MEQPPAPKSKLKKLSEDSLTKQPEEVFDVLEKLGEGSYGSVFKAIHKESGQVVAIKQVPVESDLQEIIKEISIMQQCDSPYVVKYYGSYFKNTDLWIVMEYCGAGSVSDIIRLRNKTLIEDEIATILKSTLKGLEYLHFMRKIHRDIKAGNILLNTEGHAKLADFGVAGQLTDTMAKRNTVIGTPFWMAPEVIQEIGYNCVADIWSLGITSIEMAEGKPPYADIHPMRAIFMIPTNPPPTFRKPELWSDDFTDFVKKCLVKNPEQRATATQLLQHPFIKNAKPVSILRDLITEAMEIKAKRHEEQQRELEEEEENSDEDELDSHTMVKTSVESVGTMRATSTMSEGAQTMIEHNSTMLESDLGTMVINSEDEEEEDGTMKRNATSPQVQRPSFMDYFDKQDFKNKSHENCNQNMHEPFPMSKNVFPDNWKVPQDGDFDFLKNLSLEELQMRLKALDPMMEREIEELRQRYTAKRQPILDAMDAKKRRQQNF
T1 sequence (Q13043 whole entry): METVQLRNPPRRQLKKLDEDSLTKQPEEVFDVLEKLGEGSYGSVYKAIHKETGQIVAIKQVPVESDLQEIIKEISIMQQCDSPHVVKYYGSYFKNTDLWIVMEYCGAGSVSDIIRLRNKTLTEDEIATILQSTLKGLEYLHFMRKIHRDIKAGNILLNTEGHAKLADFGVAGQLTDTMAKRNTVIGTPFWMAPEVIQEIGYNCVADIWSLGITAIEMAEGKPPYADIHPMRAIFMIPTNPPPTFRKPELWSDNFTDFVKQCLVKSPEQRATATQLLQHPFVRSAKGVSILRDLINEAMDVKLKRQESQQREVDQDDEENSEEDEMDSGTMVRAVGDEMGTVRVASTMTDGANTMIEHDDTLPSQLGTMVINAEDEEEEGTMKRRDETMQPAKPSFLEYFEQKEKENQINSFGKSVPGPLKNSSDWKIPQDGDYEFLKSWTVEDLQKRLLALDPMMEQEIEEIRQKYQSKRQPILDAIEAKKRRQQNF

For orientation: pIC50 means the IC50 on a negative log10 scale, so that one unit is a factor of ten. For the molecule `CCOc1cc2ncc(C#N)c(Nc3ccc(OCc4ncccc4C)c(OC)c3)c2cc1NC(=O)/C=C/CN(C)C` [Example 92], the negative logarithm of the IC50 (pIC50) in experiment [1] (setting [8]) and in experiment [2] (setting [9]) was above 7.00 throughout.

In the case of `CCOc1cc2ncc(C#N)c(Nc3ccc(OCc4ccccn4)c(Cl)c3)c2cc1NC(=O)/C=C/CN(C)C` [neratinib], in experiment [3] (25 M neratinib (so in the source)), the “induction of cleaved caspase 3 (Cl Casp3)” value is “inhibited”. The “MST1 phosphorylation (pMST1)” value in experiment [3] was “inhibited”. Moreover, in experiment [4] (10 μM neratinib), the “Caspase 3 cleavage” value is “inhibited” and the MST1 phosphorylation entry is “inhibited”. Besides, in experiment [4] (25 μM neratinib), the “Caspase 3 cleavage” value is “inhibited” and the MST1 phosphorylation entry is given as “inhibited”. The Beta cell apoptosis result in experiment [5] was “decrease”. In addition, the hyperglycemia result in experiment [6] (T1D model mice treated with STZ, FIG. 4) is “attenuated”. Further, the “responses to acute glucose challenge” value in experiment [6] (T1D model mice, FIG. 5) is reported as “improved”. Besides, the blood glucose result in experiment [6] (T1D model mice, FIG. 6) is on record as “reduced”. Further, the serum insulin result in experiment [6] (T1D model mice, FIG. 7) was “increased”. For the same molecule, the MST1 kinase activity result in experiment [7] is listed as “inhibitor”.

Take `CCOc1cc2ncc(C#N)c(Nc3ccc(OCc4ncccc4CO)cc3Cl)c2cc1NC(=O)CCCN(C)C` [Example 83]: the negative logarithm of the IC50 (pIC50) in experiment [1] (setting [8]) and in experiment [2] (setting [9]) was above 7.00 throughout.

As for `CCOc1cc2ncc(C#N)c(Nc3ccc(OCc4cc(OC)ccn4)c(Cl)c3)c2cc1NC(=O)CCCN(C)C` [Example 37], the values for the pIC50 in experiment [1] (setting [8]) and in experiment [2] were above 7.00 and 6.00 to 7.00, respectively.

In the case of `CCOc1cc2ncc(C#N)c(Nc3ccc(OCc4ncccc4C)c(C#N)c3)c2cc1NC(=O)CCCN(C)C` [Example 27], the values for the negative logarithm of the IC50 (pIC50) in experiment [1] and in experiment [2] were 6.00 to 7.00 and 5.00 to 6.00, respectively.

Turning to `CCOc1cc2ncc(C#N)c(Nc3ccc(OCc4ccc(C)cn4)c(Cl)c3)c2cc1NC(=O)CCCN(C)C` [Example 11], the pIC50 in experiment [1] (setting [8]) is 6.00 to 7.00; in experiment [2] (setting [9]), above 7.00.

Consider `CCOc1cc2ncc(C#N)c(Nc3ccc(OCc4cccc(C#N)n4)c(Cl)c3)c2cc1NC(=O)CCCN(C)C` [Example 5], for which the pIC50 was above 7.00 in experiment [1] (setting [8]) and 6.00 to 7.00 in experiment [2].

`CCOc1cc2ncc(C#N)c(Nc3ccc(OCc4nccn4CC)c(Cl)c3)c2cc1NC(=O)CCCN(C)C` [Example 38]: the pIC50 in experiment [1] (setting [8]) and in experiment [2] was 6.00 to 7.00 each time.

`CCOc1cc2ncc(C#N)c(Nc3ccc(OCc4ncccc4OC)c(Cl)c3)c2cc1NC(=O)CCCN(C)C` [Example 18]: the values for the negative logarithm of the IC50 (pIC50) in experiment [1] (setting [8]) and in experiment [2] were above 7.00 and 6.00 to 7.00, respectively.

Regarding `CCOc1cc2ncc(C=O)c(Nc3ccc(OCc4ncccc4C)cc3Cl)c2cc1NC(=O)CCCN(C)C` [Example 145, N-(4-(2-chloro-4-((3-methylpyridin-2-yl)methoxy)phenylamino)-7-ethoxy-3-formylquinolin-6-yl)-4-(dimethylamino)butanamide], the pIC50 in experiment [1] and in experiment [2] was 5.00 to 6.00 in each case.

Turning to `CCOc1cc2ncc(C#N)c(Nc3ccc(OCc4ncccc4C)c(Cl)c3)c2cc1NC(=O)/C=C/CN(C)C` [Example 90, (E)-N-(4-(3-chloro-4-((3-methylpyridin-2-yl)methoxy)phenylamino)-3-cyano-7-ethoxyquinolin-6-yl)-4-(dimethylamino)but-2-enamide], the pIC50 in experiment [1] (setting [8]) and in experiment [2] (setting [9]) was above 7.00 throughout.

Turning to `CCOc1cc2ncc(C#N)c(Nc3ccc(OCc4ccc(Cl)cn4)c(Cl)c3)c2cc1NC(=O)CCCN(C)C` [Example 14], the pIC50 in experiment [1] and in experiment [2] was 6.00 to 7.00 in each case.

Consider `CCOc1cc2ncc(C#N)c(Nc3ccc(OCc4ncc(C)o4)c(Cl)c3)c2cc1NC(=O)CCCN(C)C` [Example 39], for which the results for the pIC50 in experiment [1] (setting [8]) and in experiment [2] were above 7.00 and 6.00 to 7.00, respectively.

With `CCOc1cc2ncc(C#N)c(Nc3ccc(OCc4ccccn4)c(F)c3)c2cc1NC(=O)CCCN(C)C` [Example 9], the negative logarithm of the IC50 (pIC50) in experiment [1] (setting [8]) and in experiment [2] was 6.00 to 7.00 in each case.

On to `CCOc1cc2ncc(C#N)c(Nc3cc(C)c(OCc4ncccc4C)cc3C)c2cc1NC(=O)CCCN(C)C` [Example 34], for which the pIC50 in experiment [1] (setting [8]) and in experiment [2] (setting [9]) was above 7.00 each time.

Take `CCOc1cc2ncc(C#N)c(Nc3ccc(OCc4ncccc4C(=O)OC)cc3Cl)c2cc1NC(=O)CCCN(C)C` [Example 82]: the pIC50 in experiment [1] (setting [8]) and in experiment [2] was 6.00 to 7.00 in each case.

With `CCOc1cc2ncc(C#N)c(Nc3ccc(OCc4ncccc4F)c(Cl)c3)c2cc1NC(=O)CCCN(C)C` [Example 16], the negative-log IC50 (pIC50) in experiment [1] (setting [8]) and in experiment [2] (setting [9]) was above 7.00 each time.

As to `CCOc1cc2ncc(C#N)c(Nc3ccc(OCc4cccc(Cl)n4)c(Cl)c3)c2cc1NC(=O)CCCN(C)C` [Example 7], the pIC50 in experiment [1] (setting [8]) and in experiment [2] (setting [9]) was above 7.00 each time.

As to `CCOc1cc2ncc(C#N)c(Nc3ccc(OCc4ccccn4)c(Cl)c3)c2cc1NC(=O)CCCN(C)C` [Example 8], the pIC50 in experiment [1] (setting [8]) was above 7.00; in experiment [2] it was 6.00 to 7.00.
